Source: ChEMBL document CHEMBL5360671, “Targeting KRASG12D Mutations: Discovery of Small Molecule Inhibitors for the Potential Treatment of Intractable Cancers” (ACS Med Chem Lett, 2023)

Tests used:
[1] = Drug absorption in Balb/c mouse assessed as fraction of drug absorbed into portal vein at 1 mg/kg, […] measured for 24 hrs by UPLC-MS/MS analysis; assay type: ADME, organism-based; conditions: in vivo
[2] = biological target: Mitogen-activated protein kinase; ERK1/ERK2 (Homo sapiens, UniProt P27361+P28482); assay: Inhibition of ERK1/2 phosphorylation in human PANC-1 cells incubated for 3 hrs; assay type: cell-based
[3] = Oral bioavailability in Balb/c mouse at 30 mg/kg measured for 24 hrs by UPLC-MS/MS analysis; assay type: ADME, organism-based; conditions: in vivo

Row | SMILES | FaFg [1] [%] | IC50 [2] [nM] | bioavailability [3] [%]
1 | C#Cc1c(F)ccc2cccc(-c3nc4c5c(nc(OC[C@@]67CCCN6C[C@H](F)C7)nc5c3F)N3C[C@H]5CC[C@H](N5)[C@H]3CO4)c12 | 54 | 2 | 37.7
2 | Oc1cc(Cl)c(C2CC2)c(-c2nc3c4c(nc(OC[C@@]56CCCN5C[C@H](F)C6)nc4c2F)N2CC4CCC(N4)C2CO3)c1 (some centres undefined) |  | 7 | 
3 | Oc1cc(-c2nc3c4c(nc(OC[C@@]56CCCN5C[C@H](F)C6)nc4c2F)N2C[C@H]4CC[C@H](N4)[C@H]2CO3)c2c(Cl)cccc2c1 |  | 5 | 
4 | Oc1cc(-c2nc3c4c(nc(OC[C@@]56CCCN5C[C@H](F)C6)nc4c2F)N2CC4CCC(N4)C2CO3)c2c(Cl)cccc2c1 (some centres undefined) |  | 33 | 
5 | C#Cc1cccc2cccc(-c3nc4c5c(nc(OC[C@@]67CCCN6C[C@H](F)C7)nc5c3F)N3C[C@H]5CC[C@H](N5)[C@H]3CO4)c12 | 56.6 | 10 | 39.2
6 | C#Cc1c(F)ccc2cccc(-c3nc4c5c(nc(OC[C@@]67CCCN6C[C@H](F)C7)nc5c3F)N3CC5CCC(N5)C3CO4)c12 (some centres undefined) |  | 9 | 
7 | CCc1c(F)ccc2cc(O)cc(-c3nc4c5c(nc(OC[C@@]67CCCN6C[C@H](F)C7)nc5c3F)N3C[C@H]5CC[C@H](N5)[C@H]3CO4)c12 |  | 0.76 | 
8 | C#Cc1c(F)ccc2cc(O)cc(-c3ncc4c(N5C[C@H]6CC[C@@H](C5)N6)nc(OC[C@@]56CCCN5C[C@H](F)C6)nc4c3F)c12 [MRTX-1133] | 0.95 | 2.3 | 0.66
